Some results are limits rather than exact numbers.

The test is described as follows: In Vitro CaMKIIδ Activity Assay: The inhibition of CaMKII activity was evaluated using a coupled assay measuring ADP released following ATP hydrolysis and phosphor-transfer to the peptide substrate AC3 (KKALHRQETVDAL; SEQ ID NO: 1) (1). A full length, C-terminal His/Gln tagged CaMKIIδ construct was used.
With `c1ccc2c(c1)[nH]c1nccc(-n3cc(C4CCNCC4)nn3)c12`, the half-inhibitory concentration (IC50) entry is “in the range around 55 µM”.
Turning to `Cc1ccc2[nH]c3nccc(-c4cccc(NCCN)c4)c3c2c1`, the IC50 is less than 0.1 µM.
Then `c1ccc2c(c1)[nH]c1nccc(-c3cnc(N4CCNCC4)s3)c12`, with “in the range around 55 µM”; and `NCCCNc1cccc(-c2ccnc3[nH]c4ccccc4c23)c1`, with less than 0.1 µM.
The same measure for `NCCOc1cccc(-c2ccnc3[nH]c4ccccc4c23)c1`: less than 0.1 µM; for `Cc1nn(C2CCNCC2)cc1-c1ccnc2[nH]c3ccccc3c12`: “in the range around 55 µM”; for `COc1ccc2c(c1)[nH]c1nccc(-c3cccc(NCCN)c3)c12`: less than 0.1 µM.
Then `Cc1ccc2c(c1)[nH]c1nccc(-c3cccc(NCCN)c3)c12`, with less than 0.1 µM; and `NCCNc1cccc(-c2ccnc3[nH]c4ccc(Cl)cc4c23)c1`, with less than 0.1 µM; and `Clc1cnccc1-c1ccnc2[nH]c3ccccc3c12`, with “in the range around 55 µM”.
With `C(=C\c1ccnc2[nH]c3ccccc3c12)/CN1CCNCC1`, the IC50 result is “in the range around 55 µM”.
The same measure for `C(=C/c1ccnc2[nH]c3ccccc3c12)/CN1CCNCC1`: “in the range around 55 µM”.
The same measure for `c1cc(-c2ccnc3[nH]c4ccccc4c23)cc(-n2ccnc2)c1`: “in the range around 55 µM”.
The same measure for `NCCNc1cccc(-c2ccnc3[nH]c4ccccc4c23)c1`: less than 0.1 µM; for `NCCCOc1cccc(-c2ccnc3[nH]c4ccccc4c23)c1`: less than 0.1 µM; for `c1cc(-c2ccnc3[nH]c4ccccc4c23)nc(N2CCNCC2)c1`: less than 0.1 µM.
As for `NCc1cccc(-c2ccnc3[nH]c4ccccc4c23)c1`, the IC50 entry was “in the range around 55 µM”.
Then `c1ccc2c(c1)[nH]c1nccc(-c3cnn(C4CCNCC4)c3)c12`, with “in the range around 55 µM”; and `Clc1cncc(-c2ccnc3[nH]c4ccccc4c23)c1`, with “in the range around 55 µM”.

One may read the IC50 as the point on the concentration scale where inhibition reaches its midpoint.

The values above are taken from ChEMBL document CHEMBL5729101, “CaMKII inhibitors and uses thereof” (2022).
